According to PubChem BioAssay AID1963839 (Molecular Pharmacology Branch, DTP, NCI, 2024):
pIC50: −log10 of the molar value.

System: 817829-284-R-J1-PDC complex spheroid viability
Experiment: Anticancer human tumor 817829-284-R-J1-PDC patient-derived colon adenocarcinoma cell line growth inhibition [POLQ]
Conditions: for pIC50: curve of first compound; for viability, T/C: stronger effect = lower value
In short: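 PDC + HUVEC + MSC complex spheroids; POLQ inhibitors ± partner drugs; top conc. at/near clinical Cmax, else 10 microM (SN-38 1 microM), half-log dilutions; 37 degrees C, 5% CO2.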

[1] = second compound 0.0316 µM, first compound 0.0316 µM
[2] = second compound 0.0316 µM, first compound 0.1 µM
[3] = second compound 0.0316 µM, first compound 0.316 µM
[4] = second compound 0.0316 µM, first compound 1 µM
[5] = second compound 0.0316 µM, first compound 3.16 µM
[6] = second compound 0.0316 µM, first compound 10 µM
[7] = second compound 0.1 µM, first compound 0.0316 µM
[8] = second compound 0.1 µM, first compound 0.1 µM
[9] = second compound 0.1 µM, first compound 0.316 µM
[10] = second compound 0.1 µM, first compound 1 µM
[11] = second compound 0.1 µM, first compound 3.16 µM
[12] = second compound 0.1 µM, first compound 10 µM
[13] = second compound 0.316 µM, first compound 0.0316 µM
[14] = second compound 0.316 µM, first compound 0.1 µM
[15] = second compound 0.316 µM, first compound 0.316 µM
[16] = second compound 0.316 µM, first compound 1 µM
[17] = second compound 0.316 µM, first compound 3.16 µM
[18] = second compound 0.316 µM, first compound 10 µM
[19] = second compound 1 µM, first compound 0.0316 µM
[20] = second compound 1 µM, first compound 0.1 µM
[21] = second compound 1 µM, first compound 0.316 µM
[22] = second compound 1 µM, first compound 1 µM
[23] = second compound 1 µM, first compound 3.16 µM
[24] = second compound 1 µM, first compound 10 µM
[25] = second compound 3.16 µM, first compound 0.0316 µM
[26] = second compound 3.16 µM, first compound 0.1 µM
[27] = second compound 3.16 µM, first compound 0.316 µM
[28] = second compound 3.16 µM, first compound 1 µM
[29] = second compound 3.16 µM, first compound 3.16 µM
[30] = second compound 3.16 µM, first compound 10 µM
[31] = second compound 10 µM, first compound 0.0316 µM
[32] = second compound 10 µM, first compound 0.1 µM
[33] = second compound 10 µM, first compound 0.316 µM
[34] = second compound 10 µM, first compound 1 µM
[35] = second compound 10 µM, first compound 3.16 µM
[36] = second compound 10 µM, first compound 10 µM
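Note: spheroids exposed to compounds for 7 days.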
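Throughout, for viability, T/C: 100% = DMSO vehicle-treated spheroids.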

Structure (SMILES): CCc1cc2c(N3CCc4c(cc(Cn5ccnc5)cc4-c4cn(C)nc4C(F)(F)F)C3=O)ccnc2c(OC)n1 + Cc1cccc(N(C)C(=O)C2C(O)CCN2c2nc(C)cc(C(F)(F)F)c2C#N)c1
- pIC50 (second compound 0.0316 µM): 5.48
- pIC50 (second compound 0.1 µM): 5.38
- pIC50 (second compound 0.316 µM): 5.33
- pIC50 (second compound 1 µM): 5.56
- pIC50 (second compound 3.16 µM): 5.61
- pIC50 (second compound 10 µM): 5.80
- viability, T/C [1]: 84%
- viability, T/C [2]: 73.8%
- viability, T/C [3]: 67.4%
- viability, T/C [4]: 64.2%
- viability, T/C [5]: 49.7%
- viability, T/C [6]: 38.4%
- viability, T/C [7]: 87.5%
- viability, T/C [8]: 96%
- viability, T/C [9]: 72.7%
- viability, T/C [10]: 77.2%
- viability, T/C [11]: 54.7%
- viability, T/C [12]: 31.2%
- viability, T/C [13]: 95.5%
- viability, T/C [14]: 87.9%
- viability, T/C [15]: 76.9%
- viability, T/C [16]: 73.8%
- viability, T/C [17]: 51.3%
- viability, T/C [18]: 41.1%
- viability, T/C [19]: 90.6%
- viability, T/C [20]: 82.2%
- viability, T/C [21]: 76.8%
- viability, T/C [22]: 65.4%
- viability, T/C [23]: 47.1%
- viability, T/C [24]: 29.3%
- viability, T/C [25]: 84.9%
- viability, T/C [26]: 94.9%
- viability, T/C [27]: 86.8%
- viability, T/C [28]: 61.1%
- viability, T/C [29]: 50.1%
- viability, T/C [30]: 32.8%
- viability, T/C [31]: 92.9%
- viability, T/C [32]: 71.8%
- viability, T/C [33]: 69.1%
- viability, T/C [34]: 56.8%
- viability, T/C [35]: 42.1%
- viability, T/C [36]: 30.5%

Structure (SMILES): COc1cc2cc(C(=O)CCC(=O)O)sc2cc1OC + Cc1cccc(N(C)C(=O)C2C(O)CCN2c2nc(C)cc(C(F)(F)F)c2C#N)c1
- pIC50 (second compound 0.0316 µM): < 5.00
- pIC50 (second compound 0.1 µM): < 5.00
- pIC50 (second compound 0.316 µM): < 5.00
- pIC50 (second compound 1 µM): < 5.00
- pIC50 (second compound 3.16 µM): < 5.00
- pIC50 (second compound 10 µM): < 5.00
- viability, T/C [1]: 100%
- viability, T/C [2]: 93.1%
- viability, T/C [3]: 89%
- viability, T/C [4]: 88.5%
- viability, T/C [5]: 114%
- viability, T/C [6]: 96.2%
- viability, T/C [7]: 113%
- viability, T/C [8]: 97%
- viability, T/C [9]: 99.5%
- viability, T/C [10]: 105%
- viability, T/C [11]: 98.7%
- viability, T/C [12]: 102%
- viability, T/C [13]: 101%
- viability, T/C [14]: 90.5%
- viability, T/C [15]: 99%
- viability, T/C [16]: 108%
- viability, T/C [17]: 107%
- viability, T/C [18]: 108%
- viability, T/C [19]: 102%
- viability, T/C [20]: 88.2%
- viability, T/C [21]: 96.7%
- viability, T/C [22]: 116%
- viability, T/C [23]: 105%
- viability, T/C [24]: 104%
- viability, T/C [25]: 91.1%
- viability, T/C [26]: 111%
- viability, T/C [27]: 117%
- viability, T/C [28]: 93.8%
- viability, T/C [29]: 100%
- viability, T/C [30]: 96.9%
- viability, T/C [31]: 87.7%
- viability, T/C [32]: 86.8%
- viability, T/C [33]: 112%
- viability, T/C [34]: 89.6%
- viability, T/C [35]: 109%
- viability, T/C [36]: 89.6%

Structure (SMILES): O=C(Nc1ccc(O)c(NS(=O)(=O)c2ccc(F)cc2)c1)c1ccc(-c2ccccc2)cc1 + Cc1cccc(N(C)C(=O)C2C(O)CCN2c2nc(C)cc(C(F)(F)F)c2C#N)c1
- pIC50 (second compound 0.0316 µM): 5.09
- pIC50 (second compound 0.1 µM): 5.12
- pIC50 (second compound 0.316 µM): 5.05
- pIC50 (second compound 1 µM): 5.20
- pIC50 (second compound 3.16 µM): 5.26
- pIC50 (second compound 10 µM): 5.28
- viability, T/C [1]: 110%
- viability, T/C [2]: 106%
- viability, T/C [3]: 113%
- viability, T/C [4]: 78.7%
- viability, T/C [5]: 91.2%
- viability, T/C [6]: 41%
- viability, T/C [7]: 98.8%
- viability, T/C [8]: 79.1%
- viability, T/C [9]: 106%
- viability, T/C [10]: 90.5%
- viability, T/C [11]: 72.6%
- viability, T/C [12]: 42.5%
- viability, T/C [13]: 96.3%
- viability, T/C [14]: 93.2%
- viability, T/C [15]: 95.9%
- viability, T/C [16]: 87.9%
- viability, T/C [17]: 87.6%
- viability, T/C [18]: 45.5%
- viability, T/C [19]: 80.6%
- viability, T/C [20]: 90.5%
- viability, T/C [21]: 92.4%
- viability, T/C [22]: 94.7%
- viability, T/C [23]: 64.8%
- viability, T/C [24]: 40.4%
- viability, T/C [25]: 95.6%
- viability, T/C [26]: 101%
- viability, T/C [27]: 102%
- viability, T/C [28]: 98.9%
- viability, T/C [29]: 60.8%
- viability, T/C [30]: 37.9%
- viability, T/C [31]: 98.4%
- viability, T/C [32]: 84.5%
- viability, T/C [33]: 92.5%
- viability, T/C [34]: 83.7%
- viability, T/C [35]: 65%
- viability, T/C [36]: 30%

Structure (SMILES): COc1cccc2c1C(=O)c1c(O)c3c(c(O)c1C2=O)CC(O)(C(=O)CO)CC3OC1CC(N)C(O)C(C)O1 (stereo not drawn) + Nc1ccc(C#CCN(C(=O)Cc2ncc(C(F)(F)F)cc2C(F)(F)F)c2ccc(F)cc2)nn1
- pIC50 (second compound 0.0316 µM): > 7.50
- pIC50 (second compound 0.1 µM): > 7.50
- pIC50 (second compound 0.316 µM): > 7.50
- pIC50 (second compound 1 µM): > 7.50
- pIC50 (second compound 3.16 µM): > 7.50
- pIC50 (second compound 10 µM): > 7.50
- viability, T/C [1]: 21.8%
- viability, T/C [2]: 21.2%
- viability, T/C [3]: 5.37%
- viability, T/C [4]: 0.34%
- viability, T/C [5]: 0.13%
- viability, T/C [6]: 0.41%
- viability, T/C [7]: 18.1%
- viability, T/C [8]: 21.5%
- viability, T/C [9]: 6.2%
- viability, T/C [10]: 0.54%
- viability, T/C [11]: 0.2%
- viability, T/C [12]: 0.48%
- viability, T/C [13]: 21.1%
- viability, T/C [14]: 17.4%
- viability, T/C [15]: 6.38%
- viability, T/C [16]: 0.38%
- viability, T/C [17]: 0.13%
- viability, T/C [18]: 0.65%
- viability, T/C [19]: 21.6%
- viability, T/C [20]: 22.7%
- viability, T/C [21]: 5.1%
- viability, T/C [22]: 0.6%
- viability, T/C [23]: 0.16%
- viability, T/C [24]: 0.62%
- viability, T/C [25]: 17.3%
- viability, T/C [26]: 15.6%
- viability, T/C [27]: 5.54%
- viability, T/C [28]: 0.25%
- viability, T/C [29]: 0.19%
- viability, T/C [30]: 0.51%
- viability, T/C [31]: 18.4%
- viability, T/C [32]: 21.1%
- viability, T/C [33]: 4.32%
- viability, T/C [34]: 0.29%
- viability, T/C [35]: 0.26%
- viability, T/C [36]: 0.52%
